Results as given in patent US20200253877A1, “GEMCABENE, PHARMACEUTICALLY ACCEPTABLE SALTS THEREOF, COMPOSITIONS THEREOF AND METHODS OF USE THEREFOR” (NEUROBO PHARMACEUTICALS, INC., priority 2018, published 2020).

Experiments:
[1] = tested on: hepatic mRNA expression in STAM™ mice; assay: Murine STAM model of NASH-HCC: hepatic gene expression by quantitative RT-PCR; assay type: in vivo, mouse
Procedure: A study was performed to evaluate the efficacy of gemcabene calcium salt hydrate Crystal Form 1 having a PSD90 of 52 μm as measured by laser light diffraction, in treating non-alcoholic steatosis hepatitis (NASH) in the murine STAM™ model of NASH-HCC.
Briefly, two-day old neonatal C57BL/6 male mice were administered low-dose streptozotocin (STZ), and were subsequently fed a HFC diet from 4 weeks of age. In this model, the mice typically develop liver steatosis and diabetes, reaching steatohepatitis within 3 weeks, followed by cirrhosis within 8 weeks, and carcinoma within 16 weeks. In the current study, mice were administered daily oral gemcabene calcium salt hydrate Crystal Form 1 starting at week 6 of age and were sacrificed at week 9. […] These STAM™ groups were orally administered from week 6 one of the following: water-vehicle, gemcabene calcium salt hydrate Crystal Form 1 at 30, 100 and 300 mg/kg daily, or telmisartan ([…]®) 10 mg/kg daily. […] All groups were sacrificed at week 9. Vehicle, gemcabene calcium salt hydrate Crystal Form 1, or telmisartan were administered by oral gavage once daily.
Various gene expression markers of liver metabolism were evaluated by Real-Time PCR (RT-PCR) in all mouse groups. Total RNA was extracted from liver samples using RNAiso (Takara Bio, Japan) according to the manufacturer's instructions. […] of RNA was reverse-transcribed using a reaction mixture containing 4.4 mM MgCl2 (F. Hoffmann-La Roche, Switzerland), 40 U RNase inhibitor (Toyobo, Japan), 0.5 mM dNTP (Promega, USA), 6.28 μM random hexamer (Promega), 5×first strand buffer (Promega), 10 mM dithiothreitol (Invitrogen, USA) and 200 U MMLV-RT (Invitrogen) in a final volume of 20 μL. The reaction was carried out for 1 hour at 37° C., followed by 5 minutes at 99° C. Real-time PCR was performed using real-time PCR DICE and SYBR premix Taq (Takara Bio). To calculate the relative mRNA expression level, the expression of each gene was normalized to that of reference gene 36B4 (gene symbol: RplpO). Information of PCR-primer sets is described in Tables 37A-37C. Statistical analyses were performed using the Bonferroni Multiple Comparison Test on GraphPad Prism 6 (GraphPad Software Inc., USA). P values <0.05 were considered statistically significant. Results are expressed as mean±SD.
In order to calculate the relative mRNA expression level, the expression of each gene was normalized to that of the reference gene 36B4 (gene symbol: RplpO). The gene expression levels were measured by quantitative RT-PCR. Results were normalized with values for the vehicle-treated normal group. […] Gemcabene calcium salt hydrate Crystal Form 1 (PSD90=52 μm) modulated the mRNA expression of many hepatic genes that play a significant role in the liver homeostasis and injury.

[2] = tested on: STAM™ mice, a murine model of NASH-HCC; assay: Murine STAM model of NASH-HCC: whole blood, plasma and liver biochemistry
[3] = gemcabene Form 1 100 mg/kg, telmisartan 10 mg/kg
[4] = vs Vehicle in NASH group, gemcabene Form 1 30 mg/kg
[5] = vs Vehicle in NASH group, gemcabene Form 1 100 and 300 mg/kg
[6] = vs Vehicle in NASH group, gemcabene Form 1 100 and 300 mg/kg, telmisartan 10 mg/kg

In the case of `CC(C)(CCCCOCCCCC(C)(C)C(=O)O)C(=O)O.[Ca]` [6-(5-Carboxy-5-methyl-hexyloxy)-2,2-dimethylhexanoic acid calcium], the “LDL receptor gene expression” value ([1]; STAM mice) is reported as “no effect”, the “hepatic ApoC-III mRNA” value ([1]; STAM mice) is reported as “significantly downregulated” and the “MMP-2 mRNA expression (relative, mean±SD)” value ([1]; gemcabene Form 1 100 mg/kg) is reported as 0.5±0.2. For the same molecule, the “NF-κB mRNA expression (relative, mean±SD)” value ([1]; gemcabene Form 1 100 mg/kg) was 0.9±0.1, the “Sulf-2 mRNA expression (relative, mean±SD)” value ([1]; gemcabene Form 1 100 mg/kg) was 3.8±0.7 and the “TIMP-1 mRNA expression (relative, mean±SD)” value ([1]; gemcabene Form 1 100 mg/kg) was 3.8±1.6. The “TNF-α mRNA expression (relative to vehicle-treated normal group, mean±SD)” value ([1]; gemcabene Form 1 100 mg/kg) was 2.0±0.8, the “ACC-1 mRNA expression (relative, mean±SD)” value [1, 3] was 0.7±0.1 and the “ADH-4 mRNA expression (relative, mean±SD)” value [1, 3] was 0.6±0.1. The “CCR2 mRNA expression (relative, mean±SD)” value [1, 3] was 1.6±0.4, the “CCR5 mRNA expression (relative, mean±SD)” value [1, 3] was 1.4±0.3 and the “CRP mRNA levels (relative, mean±SD)” value [1, 3] was 0.6±0.1. For the same molecule, the “MCP-1 mRNA expression (relative, mean±SD)” value [1, 3] was 1.7±0.7, the “MIP-1β mRNA levels (relative, mean±SD)” value [1, 3] was 2.3±0.9 and the “ADH-4 mRNA expression (relative, mean±SD)” value ([1]; gemcabene Form 1 300 mg/kg) was 0.5±0.1. For the same molecule, the “CCR2 mRNA expression (relative, mean±SD)” value ([1]; gemcabene Form 1 300 mg/kg) was 1.7±0.7, the “CCR5 mRNA expression (relative, mean±SD)” value ([1]; gemcabene Form 1 300 mg/kg) was 1.3±0.3 and the “CRP mRNA levels (relative, mean±SD)” value ([1]; gemcabene Form 1 300 mg/kg) was 0.5±0.1. For the same molecule, the “MCP-1 mRNA expression (relative, mean±SD)” value ([1]; gemcabene Form 1 300 mg/kg) was 1.6±0.7, the “MIP-1β mRNA levels (relative, mean±SD)” value ([1]; gemcabene Form 1 300 mg/kg) was 2.8±1.4 and the “MMP-2 mRNA expression (relative, mean±SD)” value ([1]; gemcabene Form 1 300 mg/kg) was 0.9±0.2. For the same molecule, the “NF-κB mRNA expression (relative, mean±SD)” value ([1]; gemcabene Form 1 300 mg/kg) was 0.8±0.1, the “Sulf-2 mRNA expression (relative, mean±SD)” value ([1]; gemcabene Form 1 300 mg/kg) was 3.3±0.9 and the “TIMP-1 mRNA expression (relative, mean±SD)” value ([1]; gemcabene Form 1 300 mg/kg) was 4.4±2.1. For the same molecule, the “TNF-α mRNA expression (relative to vehicle-treated normal group, mean±SD)” value ([1]; gemcabene Form 1 300 mg/kg) was 1.9±0.7, the “ANGPTL4 mRNA expression level” value [1, 4] was “no significant difference” and the “IL-6 mRNA expression level” value [1, 4] was “no significant difference”. The “Fetuin-A mRNA expression level” value ([1]; vs Vehicle in NASH group, gemcabene Form 1 100 mg/kg) was “significant down-regulation”, the “SCD mRNA expression level” value ([1]; vs Vehicle in NASH group, gemcabene Form 1 300 mg/kg) was “significant up-regulation” and the “hepatic LPL mRNA expression levels” value ([1]; vs Vehicle in NASH group, gemcabene Form 1 30, 100 and 300 mg/kg, telmisartan 10 mg/kg) was “significant up-regulations”. For the same molecule, the “ANGPTL3 mRNA expression levels” value [1, 5] was “significant down-regulations”, the “CXCL1/KC mRNA expression levels” value [1, 5] was “marked down-regulation” and the “ANGPTL4 mRNA expression levels” value [1, 6] was “significant down-regulations”. For the same molecule, the “IL-6 mRNA expression level” value [1, 6] was “significant down-regulations”, the “fasting whole blood glucose concentrations” value ([2]; 3 days prior to termination, 8 h fasting, vs vehicle-treated STAM mice, gemcabene Form 1 30, 100, 300 mg/kg, telmisartan 10 mg/kg, oral daily wk 6-9) was “no significant differences” and the “plasma CRP levels” value ([2]; STAM mice) was “decreased”. The “plasma ALP levels” value ([2]; at termination, vs vehicle-treated NASH group, gemcabene Form 1 100 and 300 mg/kg, telmisartan 10 mg/kg) was “significant increases”, the plasma creatinine levels ([2]; at termination, vs vehicle-treated STAM group, gemcabene Form 1 300 mg/kg) was “significant increase” and the “plasma ALT levels” value ([2]; at termination, vs vehicle-treated STAM mice, gemcabene Form 1 100 mg/kg) was “significant decrease”. The “whole blood glucose levels” value ([2]; at termination, vs vehicle-treated STAM mice, gemcabene Form 1 30, 100, 300 mg/kg, telmisartan 10 mg/kg) was “no significant differences”, the “plasma total cholesterol concentrations” value ([2]; vs vehicle-treated STAM mice, gemcabene Form 1 30 mg/kg) was “no significant difference” and the plasma triglyceride concentrations ([2]; vs vehicle-treated STAM mice, gemcabene Form 1 30, 100, 300 mg/kg (dose-dependent manner), telmisartan 10 mg/kg) was “significant decreases”. The liver triglyceride content ([2]; vs vehicle-treated STAM mice, gemcabene Form 1 30, 100, 300 mg/kg, telmisartan 10 mg/kg) was “no significant differences” and the “plasma total cholesterol concentrations” value ([2]; vs vehicle-treated STAM mice, gemcabene Form 1 100 and 300 mg/kg, telmisartan 10 mg/kg) was “significant increases”.
